Read-outs that look alike come from different tables or passages of the source. One block for each compound: values may come before it. Square brackets hold non-standard residues; d marks the D form. Peptide text beside a SMILES is read from it. * marks the point of attachment. Sta = CC(C)C[C@H](N)[C@@H](O)CC(=O)O; Isovaleryl = CC(C)CC(=O)*
Key:
[1] = biological target: T1, HIV-1 protease (Human immunodeficiency virus type 1 group M subtype B, UniProt P04585); experiment: HIV protease screening assay (fluorescently labeled biotinylated substrate, streptavidin beads), percent inhibition; type: biochemical
Experimental: The HIV protease screening assay is based on fluorescently labeled substrate which can be resolved from nonlabeled cleavage product using special beads coated with streptavidin. The substrate is biotinylated at the amino terminal arginine and fluorescently labeled with fluorescein isothiocynate (FITC) at the carboxyl terminal lysine. This assay has been employed to detect novel, nonpeptidic inhibitors of HIV-1 protease. Substrate (20 μl of 0.2 μM), sample (10 μl of desired concentration), and enzyme (10 μl of 0.1 μM) are added to a 96 well pandex plate. The assay is run in 0.1 M sodium acetate buffer at pH 5.5 in the presence of 1.0 M sodium chloride and 0.05% NP-40 with incubated in the dark for one hour at room temperature. Strepavidin coated polystyrene beads {40 μl of 0.1% (w/v)} are added and the plate is incubated in the dark for an additional half hour. The labeled cleavage product is separated from the unreacted substrate via filtration and is read on the Idexx screen machine. The data are analyzed by appropriate computer algorithms to ascertain percent inhibition values.

[2] = biological target: T1, HIV-1 protease; experiment: Determination of Ki values, HIV-1 protease; type: biochemical
Experimental: Determination of Ki values utilizes the same materials and equipment employed for percent inhibition studies. Two-fold serial dilutions are made for a given inhibitor from 2, 3 or 4 starting concentrations with a total of 24, 36 or 48 individual inhibitor concentrations. These dilutions are performed utilizing the BioMek robotics system. The assay consists of 10 μL or 40 nM HIV-1 protease, 10 μL of the various inhibitor concentrations, and 20 μL of 200 μM substrate (40 μL total). The reaction is allowed to proceed for 90 min at room temperature, terminated with 40 μL of avidin beads and processed (supra vide). An inhibitor with a known Ki is run in parallel to verify the validity of the assay. The data is processed utilizing a computer program employing a nonlinear least square analysis of the data to generate the Ki values.

[3] = tested on: HIV-I protease; conditions: cited from earlier work
[4] = humans; clinical; cited from earlier work
[5] = tested on: HIV; conditions: cited from earlier work
[6] = read-out: % Protease Inhibition
[7] = read-out: Protease Inhibition, % Inhibition
[8] = Table 4, read-out: Protease Inhibition, Ki
[9] = 1.1 μM (Table 6), read-out: PROTEASE INHIBITION
[10] = 3.3 μM (Table 6), read-out: PROTEASE INHIBITION
[11] = 1.1 μM (Table 7), read-out: PROTEASE INHIBITION
[12] = 3.3 μM (Table 7), read-out: PROTEASE INHIBITION
[13] = 10 μM (Table 7), read-out: PROTEASE INHIBITION
[14] = 1.1 μM (Table 8), read-out: PROTEASE INHIBITION
[15] = 3.3 μM (Table 8), read-out: PROTEASE INHIBITION
[16] = 10 μM (Table 8), read-out: PROTEASE INHIBITION
[17] = 3.3 μM (Table 9), read-out: PROTEASE INHIBITION
[18] = 10 μM (Table 9), read-out: PROTEASE INHIBITION

Structure (SMILES): Cc1sc2ncc(C(O)CCCc3ccccc3)n2c1C (stereo not drawn) [Example 3, 2,3-Dimethyl-α-(3-phenylpropyl)imidazo-[2,1-b]thiazole-5-methanol]
% Protease Inhibition ([1]; 1.1-1.3 μM (Table 1)): 16%
% Protease Inhibition ([1]; 3.3-3.7 μM (Table 1)): 72%
inhibition at 10 µM [1, 6]: 115%
Ki ([2]; Table 1, read-out: Ki): 0.246 µM

Structure (SMILES): Cc1sc2ncc(C(O)/C=C/c3ccccc3)n2c1C (stereo not drawn) [Example 12, 2,3-Dimethyl-α-(2-phenylethenyl)imidazo[2,1-b]thiazole-5-methanol]
% Protease Inhibition ([1]; 1.1-1.3 μM (Table 1)): 63%
% Protease Inhibition ([1]; 3.3-3.7 μM (Table 1)): 103%
inhibition at 10 µM [1, 6]: 110%
Ki ([2]; Table 1, read-out: Ki): 0.567 ± 0.282 µM

Structure (SMILES): OC(CCc1ccccc1)c1cnc2sc3c(n12)CCCC3 (stereo not drawn) [Example 14, 5,6,7,8-Tetrahydro-α-(2-phenylethyl)imidazo[2,1-b]benzothiazole-3-methanol]
inhibition at 1.1 µM [1, 7]: 73%
Ki [2, 8]: 0.068 ± 0.014 µM

Structure (SMILES): OC(CCc1ccccc1)c1cnc2sc3c(n12)CCCCC3 (stereo not drawn) [Example 15, 6,7,8,9-Tetrahydro-α-(2-phenylethyl)-5H-cyclohept[d]imidazo[2,1-b]thiazole-3-methanol]
inhibition at 1.1 µM [1, 7]: 57%
Ki [2, 8]: 0.057 ± 0.014 µM

Structure (SMILES): OC(CCCCc1ccccc1)c1cnc2sc3c(n12)CCCCC3 (stereo not drawn) [Example 16, 6,7,8,9-Tetrahydro-α-(4-phenylbutyl)-5-H-cyclohept[d]imidazo[2,1-b]thiazole-3-methanol]
inhibition at 1.1 µM [1, 7]: 54%
Ki [2, 8]: 0.227 ± 0.042 µM

Structure (SMILES): OC(CCc1ccccc1)c1cnc2sc3c(n12)CCCCCC3 (stereo not drawn) [Example 17, 5,6,7,8,9,10-Hexahydro-α-(2-phenylethyl)cyclooct[d]imidazo-[2,1-b]thiazole-3-methanol]
inhibition at 1.1 µM [1, 7]: 62%
Ki [2, 8]: 0.072 ± 0.026 µM

inhibition at 1.1 µM [1, 9]: 53%
inhibition at 3.3 µM [1, 10]: 77%
Structure (SMILES): OC(CCc1ccc(F)cc1)c1cnc2sc3c(n12)CCCCC3 (stereo not drawn) [Example 24, α-[2-(4-Fluorophenyl)ethyl]-6,7,8,9-tetrahydro-5H-cyclohept[d]imidazo[2,1-b]thiazol-3-methanol]

inhibition at 1.1 µM [1, 11]: 23%
inhibition at 3.3 µM [1, 12]: 33%
inhibition at 10 µM [1, 13]: 21%
Structure (SMILES): OC(/C=C/c1ccc(F)cc1)c1cnc2sc3c(n12)CCCCC3 (stereo not drawn) [Example 25, α-[2-(4-Fluorophenyl)ethenyl]-6,7,8,9-tetrahydro-5H-cyclohept[d]imidazo[2,1-b]thiazol-3-methanol]

inhibition at 1.1 µM [1, 9]: 4.8%
inhibition at 3.3 µM [1, 10]: 80%
Structure (SMILES): OC(CCc1cccc(Br)c1)c1cnc2sc3c(n12)CCCCC3 (stereo not drawn) [Example 26, α-[2-(3-Bromophenyl)ethyl]-6,7,8,9-tetrahydro-5H-cyclohept[d]imidazo-[2,1-b]thiazol-3-methanol]

inhibition at 1.1 µM [1, 9]: 55%
inhibition at 3.3 µM [1, 10]: 98%
Structure (SMILES): OC(CCc1cccc(Cl)c1)c1cnc2sc3c(n12)CCCCC3 (stereo not drawn) [Example 27, α-[2-(3-Chlorophenyl)ethyl]-6,7,8,9-tetrahydro-5H-cyclohept[d]imidazo[2,1-b]thiazol-3-methanol]

inhibition at 1.1 µM [1, 9]: 64%
inhibition at 3.3 µM [1, 10]: 88%
Structure (SMILES): OC(CCc1cc(F)cc(F)c1)c1cnc2sc3c(n12)CCCCC3 (stereo not drawn) [Example 28, α-[2-(3,5-Difluorophenyl)ethyl]-1-6,7,8,9-tetrahydro-5H-cyclohept[d]-imidazothiazol-3-methanol]

inhibition at 1.1 µM [1, 9]: 24%
inhibition at 3.3 µM [1, 10]: 70%
Structure (SMILES): CN(C)c1ccc(CCC(O)c2cnc3sc4c(n23)CCCCC4)cc1 (stereo not shown) [Example 29]

inhibition at 3.3 µM [1, 12]: < 10%
inhibition at 10 µM [1, 13]: 24%
Structure (SMILES): CN(C)c1ccc(/C=C/C(O)c2cnc3sc4c(n23)CCCCC4)cc1 (stereo not drawn) [Example 30, α-[2-(4-Dimethylaminophenyl)ethenyl]-6,7,8,9-tetrahydro-5H-cyclohept[d]-imidazo[2,1-b]thiazol-3-methanol]

inhibition at 1.1 µM [1, 14]: 15%
inhibition at 3.3 µM [1, 15]: 68%
inhibition at 10 µM [1, 16]: 98%
Structure (SMILES): Cc1ccc(S(=O)(=O)Nc2cccc(CCC(O)c3cnc4sc(C)c(C)n34)c2)cc1 (stereo not shown) [Example 31]

inhibition at 3.3 µM [1, 17]: < 10%
inhibition at 10 µM [1, 18]: 15%
Structure (SMILES): Cc1ccc(S(=O)(=O)Nc2cccc(/C=C/C(O)c3cnc4sc(C)c(C)n34)c2)cc1 (stereo not shown) [Example 32]

inhibition at 1.1 µM [1, 14]: < 10%
inhibition at 3.3 µM [1, 15]: 52%
inhibition at 10 µM [1, 16]: 97%
Structure (SMILES): Cc1ccc(S(=O)(=O)Nc2ccccc2CCC(O)c2cnc3sc(C)c(C)n23)cc1 (stereo not shown) [Example 33]

inhibition at 1.1 µM [1, 9]: 58%
inhibition at 3.3 µM [1, 10]: 99%
Structure (SMILES): OC(CCc1cccc(F)c1F)c1cnc2sc3c(n12)CCCCC3 (stereo not drawn) [Example 34, α-[2-(2,3-Difluorophenyl)ethyl]-6,7,8,9-tetrahydro-5H-cyclohept[d]imidazothiazol-3-methanol]

inhibition at 1.1 µM [1, 9]: 63%
inhibition at 3.3 µM [1, 10]: 81%
Structure (SMILES): COc1ccc(CCC(O)c2cnc3sc4c(n23)CCCCC4)cc1 (stereo not drawn) [Example 35, α-[2-(4-methoxyphenyl)ethyl]-6,7,8,9-tetrahydro-5H-cyclohept-[d]imidazo[2,1-b]thiazol-3-methanol]

inhibition at 1.1 µM [1, 11]: 15%
inhibition at 3.3 µM [1, 12]: 52%
inhibition at 10 µM [1, 13]: 42%
Structure (SMILES): COc1ccc(/C=C/C(O)c2cnc3sc4c(n23)CCCCC4)cc1 (stereo not drawn) [Example 36, α-[2-(4-Methoxyphenyl)ethenyl]-6,7,8,9-tetrahydro-5H-cyclohept-[d]imidazo[2,1-b]thiazol-3-methanol]

inhibition at 1.1 µM [1, 9]: 51%
inhibition at 3.3 µM [1, 10]: 80%
Structure (SMILES): OC(CCc1ccc2ccccc2c1)c1cnc2sc3c(n12)CCCCC3 (stereo not drawn) [Example 37, α-[2-(2-Naphthalenyl)ethyl]-6,7,8,9-tetrahydro-5H-cyclohept[d]imidazo[2,1-b]thiazol-3-methanol]

inhibition at 1.1 µM [1, 11]: 12%
inhibition at 3.3 µM [1, 12]: 60%
inhibition at 10 µM [1, 13]: 98%
Structure (SMILES): OC(/C=C/c1ccco1)c1cnc2sc3c(n12)CCCCC3 (stereo not drawn) [Example 38, α-[2-(2-Furanyl)ethenyl]-6,7,8,9-tetrahydro-5H-cyclohept[d]imidazo[2,1-b]thiazol-3-methanol]

inhibition at 1.1 µM [1, 9]: 54%
inhibition at 3.3 µM [1, 10]: 85%
Structure (SMILES): OC(CCc1ccco1)c1cnc2sc3c(n12)CCCCC3 (stereo not drawn) [Example 39, α-[2-(2-Furanyl)ethyl]-6,7,8,9-tetrahydro-5H-cyclohept[d]imidazo[2,1-b]thiazol-3-methanol]

inhibition at 3.3 µM [1, 17]: 19%
inhibition at 10 µM [1, 18]: 81%
Structure (SMILES): Cc1sc2ncc(C(O)/C=C/c3ccco3)n2c1C (stereo not drawn) [Example 41, α-[2-(2-Furanyl)ethenyl]2,3-dimethylimidazo[2,1-b]thiazol-3-methanol]

inhibition at 1.1 µM [1, 14]: < 10%
inhibition at 3.3 µM [1, 15]: 46%
inhibition at 10 µM [1, 16]: 92%
Structure (SMILES): Cc1sc2ncc(C(O)CCc3ccco3)n2c1C (stereo not shown) [Example 42]

Structure (SMILES): CC(C)CC(=O)N[C@H](C(=O)N[C@H](C(=O)N[C@@H](CC(C)C)[C@@H](O)CC(=O)N[C@@H](C)C(=O)N[C@@H](CC(C)C)[C@@H](O)CC(=O)O)C(C)C)C(C)C [Pepstatin A] (Isovaleryl-VV[Sta]A[Sta]-OH)
inhibition of HIV-I protease [3]: inhibitor of HIV-I protease

Structure (SMILES): Nc1ccn([C@H]2CC[C@@H](CO)O2)c(=O)n1 [ddC]
limiting toxicity [4]: peripheral neuropathy which is reversible at low doses
activity against HIV in vitro [5]: potent activity against HIV in vitro

— patent publication US6191124A, “Methanol derivatives for treatment of retroviral infections especially HIV infections” (priority 1997, dated 2001)
